Results published in patent US11028075B2, “Therapeutic compounds and methods of use thereof” (GENENTECH, INC., priority 2018, dated 2021).
Counter-ions that a name gives are not always drawn.

What was measured:
[1] = target: T1, hNav1.7 (Homo sapiens (Human), UniProt Q15858); test: Tritiated compound binding to membranes from cells heterologously expressing hNav1.7 and the β1 subunit (Nav1.7 LBA); conditions: competitive binding vs [3H]compound, membranes with hNav1.7 and β1 subunit; read-out: Nav1.7 LBA EVO IC50
In short: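 Membranes from cells expressing hNav1.7 with β1 were incubated at room temperature with a tritiated competitive Nav1.7 inhibitor plus test compound in 100 mM NaCl, 20 mM Tris pH 7.4, 0.01% BSA; nonspecific binding was set with 1 μM unlabeled compound. Incubation was 18 h with […] radioligand, or 3 h with […]. Bound ligand was filtered and counted, and IC50 came from a 4-parameter fit.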
Target sequence in this assay (Q15858 whole entry, looked up): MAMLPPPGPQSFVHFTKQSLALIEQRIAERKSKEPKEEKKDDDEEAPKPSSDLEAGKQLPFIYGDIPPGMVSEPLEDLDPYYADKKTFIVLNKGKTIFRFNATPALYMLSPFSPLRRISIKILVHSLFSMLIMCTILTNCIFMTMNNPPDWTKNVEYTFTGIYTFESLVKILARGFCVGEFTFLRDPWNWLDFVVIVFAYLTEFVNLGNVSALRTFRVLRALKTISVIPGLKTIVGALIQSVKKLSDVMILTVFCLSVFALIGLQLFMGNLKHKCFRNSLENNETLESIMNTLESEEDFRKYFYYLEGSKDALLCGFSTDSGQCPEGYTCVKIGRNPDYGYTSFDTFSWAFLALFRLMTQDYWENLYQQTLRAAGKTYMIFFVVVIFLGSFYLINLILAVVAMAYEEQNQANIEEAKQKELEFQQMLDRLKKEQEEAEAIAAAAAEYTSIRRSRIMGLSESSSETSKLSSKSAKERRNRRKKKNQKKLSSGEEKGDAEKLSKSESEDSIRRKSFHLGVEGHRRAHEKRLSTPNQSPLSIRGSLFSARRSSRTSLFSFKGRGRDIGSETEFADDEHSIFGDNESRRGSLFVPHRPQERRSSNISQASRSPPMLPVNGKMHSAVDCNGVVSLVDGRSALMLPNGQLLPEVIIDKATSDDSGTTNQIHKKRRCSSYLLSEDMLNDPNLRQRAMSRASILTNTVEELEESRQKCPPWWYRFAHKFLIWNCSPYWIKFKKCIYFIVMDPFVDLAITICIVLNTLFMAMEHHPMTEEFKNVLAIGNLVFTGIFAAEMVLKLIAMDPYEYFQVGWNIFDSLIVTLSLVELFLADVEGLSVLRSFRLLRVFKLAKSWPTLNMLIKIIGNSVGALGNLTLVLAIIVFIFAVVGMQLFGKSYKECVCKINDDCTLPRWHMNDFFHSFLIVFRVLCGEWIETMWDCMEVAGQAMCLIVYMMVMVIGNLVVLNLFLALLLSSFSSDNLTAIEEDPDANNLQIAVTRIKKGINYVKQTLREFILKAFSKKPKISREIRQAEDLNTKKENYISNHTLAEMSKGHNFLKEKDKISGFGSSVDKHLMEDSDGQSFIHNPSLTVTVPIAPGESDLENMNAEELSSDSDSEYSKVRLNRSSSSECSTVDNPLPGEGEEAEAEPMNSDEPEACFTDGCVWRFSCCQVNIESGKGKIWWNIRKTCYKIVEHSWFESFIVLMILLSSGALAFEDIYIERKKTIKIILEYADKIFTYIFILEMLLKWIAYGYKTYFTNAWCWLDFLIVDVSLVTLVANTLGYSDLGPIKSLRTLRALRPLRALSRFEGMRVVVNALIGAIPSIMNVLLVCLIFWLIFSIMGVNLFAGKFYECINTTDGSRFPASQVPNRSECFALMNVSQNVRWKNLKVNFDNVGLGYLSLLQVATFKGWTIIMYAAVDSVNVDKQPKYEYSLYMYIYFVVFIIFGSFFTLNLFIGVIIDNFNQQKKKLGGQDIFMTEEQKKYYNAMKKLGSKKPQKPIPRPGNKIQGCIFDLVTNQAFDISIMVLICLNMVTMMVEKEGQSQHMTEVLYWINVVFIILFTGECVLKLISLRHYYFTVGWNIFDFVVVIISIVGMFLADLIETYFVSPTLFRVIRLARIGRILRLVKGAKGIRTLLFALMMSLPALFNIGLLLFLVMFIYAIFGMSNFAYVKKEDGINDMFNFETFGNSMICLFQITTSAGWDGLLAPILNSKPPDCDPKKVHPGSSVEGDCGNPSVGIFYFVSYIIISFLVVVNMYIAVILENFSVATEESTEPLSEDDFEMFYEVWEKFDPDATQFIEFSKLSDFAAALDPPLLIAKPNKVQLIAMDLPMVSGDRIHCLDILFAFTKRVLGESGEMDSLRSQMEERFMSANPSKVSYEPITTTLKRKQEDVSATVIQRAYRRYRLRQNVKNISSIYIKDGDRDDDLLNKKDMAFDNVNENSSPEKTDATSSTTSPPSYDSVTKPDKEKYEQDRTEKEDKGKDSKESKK
Target sequence in this assay (Q07699 whole entry partner, looked up): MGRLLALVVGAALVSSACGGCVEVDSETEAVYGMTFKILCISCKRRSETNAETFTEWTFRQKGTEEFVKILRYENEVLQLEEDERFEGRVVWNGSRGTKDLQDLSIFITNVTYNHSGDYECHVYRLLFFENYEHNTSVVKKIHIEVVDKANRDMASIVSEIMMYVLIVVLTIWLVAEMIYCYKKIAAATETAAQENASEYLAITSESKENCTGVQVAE

[2] = target: T1, hNav1.7; test: Electrophysiological assay (EP), voltage clamp on Syncropatch 384PE, CHO cells stably expressing Nav1.7; assay type: cell-based; conditions: holding potential −50 mV, 7.5 min compound incubation, read-out: EP_SP hNav1.7 EVO IC50
In short: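 Whole-cell automated patch clamp was run on CHO cells stably expressing human Nav1.7 cDNA, with internal solution CsCl/EGTA pH 7.2, external solution 80 mM NaCl pH 7.4, and 0.1% Pluronic F-127. From a −50 mV holding potential: −10 mV for 10 ms, −150 mV for 20 ms, then −10 mV for 10 ms, where current was measured. Inhibition was taken after 7.5 min compound incubation, with TTX added for full block.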
Target sequence in this assay (Q15858 other isoform, or with tags, fused parts or gaps): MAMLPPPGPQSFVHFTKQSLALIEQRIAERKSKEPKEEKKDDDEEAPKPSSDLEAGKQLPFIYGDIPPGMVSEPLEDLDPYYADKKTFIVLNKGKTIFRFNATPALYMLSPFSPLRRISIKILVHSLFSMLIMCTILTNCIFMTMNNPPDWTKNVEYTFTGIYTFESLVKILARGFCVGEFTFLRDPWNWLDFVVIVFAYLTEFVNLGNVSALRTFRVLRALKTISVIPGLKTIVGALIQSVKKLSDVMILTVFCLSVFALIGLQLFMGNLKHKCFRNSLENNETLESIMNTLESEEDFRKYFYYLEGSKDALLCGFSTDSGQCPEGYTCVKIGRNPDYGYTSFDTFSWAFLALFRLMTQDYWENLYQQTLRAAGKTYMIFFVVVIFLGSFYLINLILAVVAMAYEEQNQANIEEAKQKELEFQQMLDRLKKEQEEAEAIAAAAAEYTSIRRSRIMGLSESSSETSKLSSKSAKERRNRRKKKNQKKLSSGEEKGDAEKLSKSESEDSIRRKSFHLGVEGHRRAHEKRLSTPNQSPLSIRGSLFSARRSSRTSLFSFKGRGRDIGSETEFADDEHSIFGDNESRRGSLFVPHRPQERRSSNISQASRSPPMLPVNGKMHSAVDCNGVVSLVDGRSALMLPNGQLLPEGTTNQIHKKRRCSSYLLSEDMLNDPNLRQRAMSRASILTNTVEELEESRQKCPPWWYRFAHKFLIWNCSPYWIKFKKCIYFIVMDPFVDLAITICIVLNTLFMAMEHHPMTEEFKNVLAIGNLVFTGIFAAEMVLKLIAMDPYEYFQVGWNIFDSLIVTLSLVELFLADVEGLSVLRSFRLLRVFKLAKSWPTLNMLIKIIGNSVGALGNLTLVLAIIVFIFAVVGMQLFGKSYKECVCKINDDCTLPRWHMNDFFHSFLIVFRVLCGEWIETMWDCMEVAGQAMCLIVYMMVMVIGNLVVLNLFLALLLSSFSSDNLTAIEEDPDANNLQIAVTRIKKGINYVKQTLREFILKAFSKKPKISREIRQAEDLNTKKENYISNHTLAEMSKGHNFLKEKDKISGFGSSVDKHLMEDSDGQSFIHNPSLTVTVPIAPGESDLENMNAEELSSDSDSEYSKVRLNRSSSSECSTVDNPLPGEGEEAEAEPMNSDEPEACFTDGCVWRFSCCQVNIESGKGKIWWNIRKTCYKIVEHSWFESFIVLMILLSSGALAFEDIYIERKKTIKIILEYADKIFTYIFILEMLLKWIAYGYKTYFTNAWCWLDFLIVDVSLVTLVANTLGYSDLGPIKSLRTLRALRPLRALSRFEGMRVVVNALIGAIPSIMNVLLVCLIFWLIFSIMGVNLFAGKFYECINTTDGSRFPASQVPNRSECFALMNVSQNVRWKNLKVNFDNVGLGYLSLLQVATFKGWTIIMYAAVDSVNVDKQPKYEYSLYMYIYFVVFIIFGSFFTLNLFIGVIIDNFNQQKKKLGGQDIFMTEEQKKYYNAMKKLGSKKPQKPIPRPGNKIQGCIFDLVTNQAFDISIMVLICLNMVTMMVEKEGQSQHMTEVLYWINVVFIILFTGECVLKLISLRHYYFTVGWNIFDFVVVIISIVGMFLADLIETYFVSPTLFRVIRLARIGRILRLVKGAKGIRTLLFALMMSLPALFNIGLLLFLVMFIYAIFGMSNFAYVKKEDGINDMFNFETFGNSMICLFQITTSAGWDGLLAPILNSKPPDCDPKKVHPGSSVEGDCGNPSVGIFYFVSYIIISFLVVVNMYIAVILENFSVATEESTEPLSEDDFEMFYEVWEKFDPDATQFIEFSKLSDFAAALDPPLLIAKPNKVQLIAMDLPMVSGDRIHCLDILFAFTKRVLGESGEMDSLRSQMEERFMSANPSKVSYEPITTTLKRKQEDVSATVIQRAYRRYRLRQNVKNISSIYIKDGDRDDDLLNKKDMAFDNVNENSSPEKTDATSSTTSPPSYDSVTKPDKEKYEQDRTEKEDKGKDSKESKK

SMILES	IC50 [1] [nM]	IC50 [2] [nM]
CN(C)[C@H]1C[C@@H](c2cc(C(F)(F)F)ccc2F)CC[C@@H]1Oc1cc(F)c(S(=O)(=O)Nc2ccncn2)cc1Cl [Example 74, 5-chloro-4-(((1S,2S,4S)-2-(dimethylamino)-4-(2-fluoro-5-(trifluoromethyl)phenyl)cyclohexyl)oxy)-2-fluoro-N-(pyrimidin-4-yl)benzenesulfonamide]	4.01	1.85
CN(C)[C@H]1C[C@@H](c2cccc(Cl)c2Cl)CC[C@@H]1Oc1cc(F)c(S(=O)(=O)Nc2ccncn2)cc1Cl [Example 75, 5-chloro-4-(((1S,2S,4S)-4-(2,3-dichlorophenyl)-2-(dimethylamino)cyclohexyl)oxy)-2-fluoro-N-(pyrimidin-4-yl)benzenesulfonamide]	50.6	2.62
CN(C)[C@H]1C[C@@H](c2ccnc(C(F)(F)F)c2)CC[C@@H]1Oc1cc(F)c(S(=O)(=O)Nc2ccncn2)cc1Cl [Example 76, 5-chloro-4-(((1S,2S,4S)-2-(dimethylamino)-4-(2-(trifluoromethyl)pyridin-4-yl)cyclohexyl)oxy)-2-fluoro-N-(pyrimidin-4-yl)benzenesulfonamide formate]	78.8	8.61
CN(C)[C@H]1C[C@@H](c2cccc(C(F)(F)F)c2)CC[C@@H]1Oc1ccc(S(=O)(=O)Nc2ccncn2)cc1F [Example 79, 4-(((1S,2S,4S)-2-(Dimethylamino)-4-(3-(trifluoromethyl)phenyl)cyclohexyl)oxy)-3-fluoro-N-(pyrimidin-4-yl)benzenesulfonamide]	223	18
CN1CC(N(C)[C@H]2C[C@@H](c3cccc(C(F)(F)F)c3)CC[C@@H]2Oc2cc(F)c(S(=O)(=O)Nc3ccncn3)cc2Cl)C1 [Example 81, 5-chloro-2-fluoro-4-(((1S,2S,4S)-2-(methyl(1-methylazetidin-3-yl)amino)-4-(3-(trifluoromethyl)phenyl)cyclohexyl)oxy)-N-(pyrimidin-4-yl)benzenesulfonamide formate]	0.661	0.334
CN(C)[C@H]1C[C@@H](c2cc(Cl)cc(Cl)c2)CC[C@@H]1Oc1cc(F)c(S(=O)(=O)Nc2ccncn2)cc1Cl [Example 82, 5-chloro-4-(((1S,2S,4S)-4-(3,5-dichlorophenyl)-2-(dimethylamino)cyclohexyl)oxy)-2-fluoro-N-(pyrimidin-4-yl)benzenesulfonamide formate]	1.57	0.355
CN(C)[C@H]1C[C@@H](c2cccc(C3CCOCC3)c2)CC[C@@H]1Oc1cc(F)c(S(=O)(=O)Nc2ccncn2)cc1Cl [Example 83]	38.6	6.36
O=S(=O)(Nc1ccncn1)c1cc(F)c(N[C@H]2CC[C@H](c3ccc(F)c(C(F)(F)F)c3)C[C@@H]2N2CCCC2)cc1F [Example 84, 2,5-difluoro-4-(((1S,2S,4S)-4-(4-fluoro-3-(trifluoromethyl)phenyl)-2-(pyrrolidin-1-yl)cyclohexyl)-amino)-N-(pyrimidin-4-yl)benzenesulfonamide]	0.877	0.52
O=S(=O)(Nc1ccncn1)c1cc(F)c(N[C@H]2CC[C@H](c3cc(F)cc(C(F)(F)F)c3)C[C@@H]2N2CCCC2)cc1F [Example 85, 2,5-difluoro-4-(((1S,2S,4S)-4-(3-fluoro-5-(trifluoromethyl)phenyl)-2-(pyrrolidin-1-yl)cyclohexyl)-amino)-N-(pyrimidin-4-yl)benzenesulfonamide formate]	2.24	0.494
CN(C)[C@H]1C[C@@H](c2cc(C(F)(F)F)ccc2Cl)CC[C@@H]1Oc1cc(F)c(S(=O)(=O)Nc2ccncn2)cc1Cl [Example 86, 5-chloro-4-(((1S,2S,4S)-4-(2-chloro-5-(trifluoromethyl)phenyl)-2-(dimethylamino)-cyclohexyl)oxy)-2-fluoro-N-(pyrimidin-4-yl)benzenesulfonamide]	3.28	0.819
CN1CC(N[C@H]2C[C@@H](c3cccc(C(F)(F)F)c3)CC[C@@H]2Oc2cc(F)c(S(=O)(=O)Nc3ccncn3)cc2Cl)C1 [Example 87, 5-chloro-2-fluoro-4-(((1S,2S,4S)-2-((1-methylazetidin-3-yl)amino)-4-(3-(trifluoromethyl)phenyl)-cyclohexyl)oxy)-N-(pyrimidin-4-yl)benzenesulfonamide]	7.94	1.18
CN(C)[C@H]1C[C@@H](c2cccc(C(F)(F)F)c2)CC[C@@H]1Nc1c(F)cc(S(=O)(=O)Nc2ccncn2)cc1F [Example 88, 4-(((1S,2S,4S)-2-(Dimethylamino)-4-(3-(trifluoromethyl)phenyl)cyclohexyl)amino)-3,5-difluoro-N-(pyrimidin-4-yl)benzenesulfonamide]	170	17
CN(C)[C@H]1C[C@@H](c2cccc(C(C)(F)F)c2)CC[C@@H]1Oc1cc(F)c(S(=O)(=O)Nc2ccncn2)cc1Cl [Example 91, 5-chloro-4-(((1S,2S,4S)-4-(3-(1,1-difluoroethyl)phenyl)-2-(dimethylamino)cyclohexyl)oxy)-2-fluoro-N-(pyrimidin-4-yl)benzenesulfonamide]	6.13	1.2
CN(C)[C@H]1C[C@@H](c2cccc(C(F)(F)F)c2Cl)CC[C@@H]1Oc1cc(F)c(S(=O)(=O)Nc2ccncn2)cc1Cl [Example 92, 5-chloro-4-(((1S,2S,4S)-4-(2-chloro-3-(trifluoromethyl)phenyl)-2-(dimethylamino)-cyclohexyl)oxy)-2-fluoro-N-(pyrimidin-4-yl)benzenesulfonamide]	55.7	3.99
